In article PMC3914206:

Key:
panel of 442 kinases [1] = molecular target: T1, panel of 442 kinases (Homo sapiens, UniProt P20794); type: binding; details: Compound Concentration 10 µM
T1 construct: purchased KINOMEscan
T1 sequence (P20794 1-623): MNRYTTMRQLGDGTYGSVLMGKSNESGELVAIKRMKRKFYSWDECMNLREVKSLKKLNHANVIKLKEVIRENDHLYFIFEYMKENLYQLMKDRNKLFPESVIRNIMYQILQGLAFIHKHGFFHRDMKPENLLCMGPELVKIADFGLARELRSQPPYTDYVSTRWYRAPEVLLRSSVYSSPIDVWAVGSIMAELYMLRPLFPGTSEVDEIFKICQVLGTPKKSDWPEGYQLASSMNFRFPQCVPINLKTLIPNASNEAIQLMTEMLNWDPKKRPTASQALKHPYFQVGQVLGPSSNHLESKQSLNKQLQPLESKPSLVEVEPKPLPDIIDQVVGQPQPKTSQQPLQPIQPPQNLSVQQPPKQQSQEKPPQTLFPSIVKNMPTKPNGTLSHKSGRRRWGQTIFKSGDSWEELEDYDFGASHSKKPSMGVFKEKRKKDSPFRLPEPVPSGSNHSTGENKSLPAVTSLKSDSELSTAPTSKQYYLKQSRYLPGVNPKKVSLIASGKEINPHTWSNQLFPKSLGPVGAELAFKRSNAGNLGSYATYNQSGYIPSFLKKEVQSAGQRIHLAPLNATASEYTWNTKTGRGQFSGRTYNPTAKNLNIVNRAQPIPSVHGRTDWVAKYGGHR
Description: (§1) We assessed the selectivity of members of this scaffold using the KINOMEscan methodology across a near comprehensive panel of 442 kinases [[18,27]].

panel of 442 kinases [2] = molecular target: T2, panel of 442 kinases (Homo sapiens, UniProt Q13163); type: binding; details: Compound Concentration 10 µM
T2 construct: purchased KINOMEscan
T2 sequence (Q13163 1-448): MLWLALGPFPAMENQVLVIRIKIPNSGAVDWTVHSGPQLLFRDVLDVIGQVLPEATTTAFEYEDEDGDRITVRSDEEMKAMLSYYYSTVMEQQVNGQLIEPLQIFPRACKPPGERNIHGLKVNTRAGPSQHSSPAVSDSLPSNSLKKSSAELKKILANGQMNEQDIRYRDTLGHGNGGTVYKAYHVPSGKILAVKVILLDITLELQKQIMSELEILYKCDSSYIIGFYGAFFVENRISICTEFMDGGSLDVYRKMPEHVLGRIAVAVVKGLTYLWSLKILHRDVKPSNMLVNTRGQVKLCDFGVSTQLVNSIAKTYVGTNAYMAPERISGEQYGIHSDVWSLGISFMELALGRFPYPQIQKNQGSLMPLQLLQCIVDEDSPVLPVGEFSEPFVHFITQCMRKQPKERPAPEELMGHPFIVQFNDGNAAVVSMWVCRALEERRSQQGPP
Description: as §1

SMILES | KINOMEscan: MAK (panel of 442 kinases [1]) | KINOMEscan: MEK5 (panel of 442 kinases [2])
COc1cc(C(=O)N2CCC(N3CCN(C)CC3)CC2)ccc1Nc1ncc2c(n1)N(C1CCCC1)c1ccccc1C(=O)N2C [Compound 25, 11-cyclopentyl-2-((2-methoxy-4-(4-(4-methylpiperazin-1-yl)piperidine-1-carbonyl)phenyl)amino)-5-methyl-5H-benzo[e]pyrimido[5,4-b][1,4]diazepin-6(11H)-one] | 100 | 83
CCOc1cc(C(=O)N2CCC(N3CCN(C)CC3)CC2)ccc1Nc1ncc2c(n1)N(C1CCCC1)c1ccccc1C(=O)N2C [Compound 26] | 100 | 100
COc1cc(C(=O)N2CCC(N3CCN(C)CC3)CC2)ccc1Nc1ncc2c(n1)N1CCc3cccc(c31)C(=O)N2C [Compound 24] | 100 | 28
COc1cc(C(=O)N2CCC(N3CCN(C)CC3)CC2)ccc1Nc1ncc2c(n1)N(C)c1ccccc1C(=O)N2C [15 (LRRK2-IN-1)] | 72 | 85
